Measured values: patent US20250375398A1
Like-named read-outs stand apart in the source and are kept apart here.

Tests used:
SARS-CoV-2 [1] = conditions: for host cell viability, normalized to remdesivir alone (5 μM) / host cell viability (in words): infected Vero E6, 72 hours
[2] = system: SARS-CoV-2 virus [B.1.351]; assay type: in vivo, mice; conditions: day 4
SARS-CoV-2 [3] = assay type: cell-based; conditions: remdesivir alone, dose-dependent; control around 10^6 TCID50/mL
[4] = system: SARS-CoV-2 virus [B.1.351]; assay type: in vivo, mice
SARS-CoV-2 [5] = test: microbe, parasite or virus in culture

SMILES: Cc1cc(O)c2c(=O)c3c(O)cc(O)c4c5c(O)cc(O)c6c(=O)c7c(O)cc(C)c8c1c2c(c34)c(c78)c65 [Hypericin]
- host cell viability, normalized to remdesivir alone (5 μM) (SARS-CoV-2 [1]; hypericin 1.563 μM, remdesivir 0 μM): 14.6%
- host cell viability, normalized to remdesivir alone (5 μM) (SARS-CoV-2 [1]; hypericin 3.125 μM, remdesivir 0 μM): 12.9%
- host cell viability, normalized to remdesivir alone (5 μM) (SARS-CoV-2 [1]; hypericin 6.25 μM, remdesivir 0 μM): 12.8%
- host cell viability, normalized to remdesivir alone (5 μM) (SARS-CoV-2 [1]; hypericin 12.5 μM, remdesivir 0 μM): 20.4%
- host cell viability, normalized to remdesivir alone (5 μM) (SARS-CoV-2 [1]; hypericin 25 μM, remdesivir 0 μM): 62.0%
- host cell viability, normalized to remdesivir alone (5 μM) (SARS-CoV-2 [1]; hypericin 50 μM, remdesivir 0 μM): 62.6%
- host cell viability, normalized to remdesivir alone (5 μM) (SARS-CoV-2 [1]; hypericin 100 μM, remdesivir 0 μM): 38.0%
- host cell viability (in words) (SARS-CoV-2 [1]; hypericin (25-50 μM) alone): modest improvements in host cell viability
- host cell viability (SARS-CoV-2 [1]; hypericin alone, 12.5-50 μM): 20-62%
- mice in which all infectious titers in lung were eliminated ([2]; Hypericin 20 mg/kg, pre-treatment from two days prior to infection): 5 out of 7

SMILES: CCC(CC)COC(=O)[C@H](C)N[P@](=O)(OC[C@H]1O[C@@](C#N)(c2ccc3c(N)ncnn23)[C@H](O)[C@@H]1O)Oc1ccccc1 [Remdesivir]
- viral titer of SARS-CoV-2 (SARS-CoV-2 [3]): zero
- infectious titers in lung, in words ([4]; remdesivir 25 mg/kg daily intraperitoneally, day 4 post infection): strongest antiviral effect in reducing infectious titer
- infectious titers in lung (plaque forming unit per mg of tissues), in words ([4]; remdesivir 5, 10 or 25 mg/kg daily intraperitoneally from day 1 post infection, day 4): dose-dependent effect on reducing infectious titers
- viability at 5 µM (SARS-CoV-2 [5]; Severe acute respiratory syndrome coronavirus 2, Vero C1008, 72 h, read-out: host cell viability, normalized to remdesivir alone (5 μM)): 100%
- viability at 1.25 µM (SARS-CoV-2 [5]; Severe acute respiratory syndrome coronavirus 2, Vero C1008, read-out: host cell viability): 26%
- host cell viability, normalized to remdesivir alone (5 μM) (SARS-CoV-2 [1]; hypericin 0 μM, remdesivir 0.3125 μM): 19.8%
- host cell viability, normalized to remdesivir alone (5 μM) (SARS-CoV-2 [1]; hypericin 0 μM, remdesivir 0.625 μM): 21.9%
- host cell viability, normalized to remdesivir alone (5 μM) (SARS-CoV-2 [1]; hypericin 0 μM, remdesivir 1.25 μM): 25.2%
- host cell viability, normalized to remdesivir alone (5 μM) (SARS-CoV-2 [1]; hypericin 0 μM, remdesivir 2.5 μM): 38.1%
- host cell viability (in words) (SARS-CoV-2 [1]; remdesivir (5 μM) alone): dose-dependently improved host cell viability
- infectious titers in lung compared to vehicle, in words ([2]; Remdesivir 10 mg/kg daily from day 1 post infection): did not impact infectious titers compared to vehicle
- mice in which all infectious titers in lung were eliminated ([2]; Remdesivir 25 mg/kg daily from day 1 post infection): 4 out of 7
